Active and inactive are the calls of the source.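 Rule for the calls: active = compounds giving half or more protection of infected cells from virus-caused growth loss, again on retest; inactive = the rest.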
System: CEM cells HIV-1 protection, formazan growth assay
Assay: NCI AIDS Antiviral Assay
Conditions: for IC50: measured here: growth of uninfected CEM cells
How it was run: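 Human CEM cells, uninfected and HIV-1-infected, received five drug concentrations, and growth was read by soluble formazan assay. Compounds giving at least 50% protection were retested; reproducible 100% protection defined confirmed active.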

Row | SMILES | EC50 | IC50 | outcome
1 | CC(C)[Si](OCC1CC(C#N)OC(C)(C)O1)(C(C)C)C(C)C (centres undefined) | > 200 µM | 107 µM | 
2 | O=C1/C(=N\O)C(c2ccccc2)Oc2ccccc21 (centres undefined) | 20.9 µM | 38 µM | 
3 | NC(=O)Nn1c2c(c3c1CCCC3)CCCC2 |  |  | inactive
4 | Nc1snc2ncccc12 | > 1200 µM | 66.1 µM | 
5 | NC1=NCC(c2ccc(Cl)cc2)O1 (centres undefined) | > 200 µM | 50.1 µM | 
6 | CCCCCCCCCCCCOC(=S)NC |  |  | inactive
7 | COc1c(Cl)cc(Cl)cc1S(=O)O |  |  | inactive
8 | COc1ccc(NC(=O)/C(N=O)=C(/C)O)cc1 | > 1050 µM | > 1050 µM | 
9 | NCS(=O)(=O)O | > 200 µM | 18.6 µM | 
10 | C[C@H](NC(=O)n1c2ccccc2c2ccccc21)C(=O)O | > 891 µM | 234 µM | 
11 | CN1CCC(=O)/C(=C/c2ccccc2)C1 |  |  | inactive
12 | COc1nc(NC2OCC(OC(C)=O)C(OC(C)=O)C2OC(C)=O)c(C(=O)CCl)c(=O)n1C (centres undefined) |  |  | inactive
13 | O=C1CCC2(c3ccccc3)Nc3cc(Cl)ccc3N12 (centres undefined) |  |  | inactive
14 | O=C(CSc1nc(-c2ccccc2)c(-c2ccccc2)[nH]1)NNC(=S)Nc1ccccc1 | > 56.2 µM | 29.5 µM | 
15 | CCN(CC)CC1CN=C(N)O1 (centres undefined) | > 200 µM | > 200 µM | 
16 | c1ccc([P+](CCSCCSCC[P+](c2ccccc2)(c2ccccc2)c2ccccc2)(c2ccccc2)c2ccccc2)cc1 | > 339 µM | 61.7 µM | 
17 | CC[C@@]1(O)C(=O)OCc2c1cc1n(c2=O)Cc2cc3cc4c(cc3nc2-1)OCO4 | > 0.002 µM | 0.000331 µM | 
18 | COc1cc(C2SCC(=O)N2c2ccc(Oc3ccc(Cl)cc3)c(Cl)c2)cc(OC)c1OC (centres undefined) | > 200 µM | 20 µM | 
19 | O=C(O)C(=O)/C=C\c1ccc(Cl)cc1 | > 617 µM | 191 µM | 
20 | CCCCC[C@@H]1CC=CC(NC(=O)OCc2ccccc2)C1/C=C/C(=O)OCCCC1OCCO1 (some centres undefined) |  |  | inactive
21 | Cc1ccc(C)c(NC(=O)CC/C(=N\NC(=O)C(N)=O)C(C)C(=O)c2ccc(O)cc2)c1 (centres undefined) | > 155 µM | > 155 µM | 
22 | Cn1c2ccccc2c2[nH]c3ccccc3c(=O)c21 | > 200 µM | 13.8 µM | 
23 | O=C1[C@@H]2C(c3ccc(Cl)cc3Cl)=NO[C@@H]2C(=O)N1c1ccc(Cc2ccc(N3C(=O)[C@H]4C(c5ccc(Cl)cc5Cl)=NO[C@H]4C3=O)cc2)cc1 | > 7.08 µM | > 7.08 µM | 

Row | SMILES | EC50 | IC50 | outcome
24 | O=c1c2c(no[n+]2[O-])c2ccccc2n1-c1ccccc1 | > 200 µM | 1.95 µM | 
25 | COc1ccc2c(c1)C1CCN(C)CC1OC2=O (centres undefined) |  |  | inactive
26 | COC(=O)C(CC1=C(O)Nc2ccccc2N1)/C(=N/NC(N)=O)C(=O)Nc1ccccc1C (centres undefined) |  |  | inactive
27 | CON(C)c1nc(Cl)nc(N(C)OC)n1 | > 200 µM | > 200 µM | 
28 | CC(=O)C(C)(O)C(OP(=O)(O)O)c1ccccc1 (centres undefined) | > 200 µM | > 200 µM | 
29 | CCN(CC)C(=O)C1C[C@@H](O)CN1C(=O)c1ccc(OC)c(OC)c1 (some centres undefined) | > 200 µM | > 200 µM | 
30 | COc1ccc(=O)n(C)n1 | > 1780 µM | 1450 µM | 
31 | CCOc1nnnc2nc[nH]c12 | > 200 µM | 70.8 µM | 
32 | CCOC(=O)NC(Nc1ncccn1)(C(=O)OCC)C(F)(F)F (centres undefined) | > 200 µM | > 200 µM | 
33 | O=C(O)Cc1[nH]c(=O)[nH]c(=O)c1CCl | > 100 µM | > 100 µM | 
34 | CSc1nc(NC2OCC(O)C(O)C2O)cc(=O)n1C (centres undefined) |  |  | inactive
35 | COC(=O)C(=O)C(C(=O)C1=NS(=O)(=O)c2cc(S(N)(=O)=O)c(Cl)cc2N1)c1nc2ccc(C(=O)c3ccccc3)cc2[nH]c1=O (centres undefined) | > 195 µM | 49 µM | 
36 | Cc1ccc(CC[P+](=O)CCc2ccc(C)nc2)cn1 | > 200 µM | > 200 µM | 
37 | OCC1CCCCCCCCCCC12SCCCS2 (centres undefined) | > 200 µM | 120 µM | 
38 | COC(=O)N/N=C/c1oc(-c2cccc([N+](=O)[O-])c2)c(-c2cccc([N+](=O)[O-])c2)c1[N+](=O)[O-] | > 79.4 µM | > 79.4 µM | 
39 | N#C/C(=C/n1c(=S)[nH]c2ccc([N+](=O)[O-])cc21)c1ccc([N+](=O)[O-])cc1 | > 200 µM | 117 µM | 
40 | COc1ccc(C2OCC3OC(n4cc(C)c(=O)[nH]c4=O)C[C@H]3N2OC(C)=O)cc1 (some centres undefined) |  |  | inactive
41 | O=C(CCCn1ccnc1[N+](=O)[O-])NCCn1cnc([N+](=O)[O-])n1 | > 200 µM | > 200 µM | 
42 | CCOC(=O)/C(=C(/N)C1OC(COC(c2ccccc2)(c2ccccc2)c2ccccc2)C2OC(C)(C)OC12)C1CC(=O)N(C)C1=O (centres undefined) | > 200 µM | 11.7 µM | 
43 | COc1ccc(/C=C(\C#N)c2ccc(C)cc2)cc1OC | > 200 µM | 33.1 µM | 
44 | COCC1OC2(CCC[C@H]2O)O[C@H]1COC (some centres undefined) |  |  | inactive
45 | CCOP(=O)(CCCC(O)CNc1nc(N)nc(Cl)c1N=Nc1ccc(Cl)cc1)OCC (centres undefined) | > 200 µM | 5.75 µM | 
46 | CC1(C)S[C@@H]2[C@H](NC(=O)C3(N)CCCCC3)C(=O)N2[C@H]1C(=O)O | > 200 µM | > 200 µM | 

Row | SMILES | EC50 | IC50 | outcome
47 | O=C(O)/C=C/c1ccc[c]([Sb](=[O])([OH])[OH])c1 | 2.82 µM | > 200 µM | 
48 | CN1CCC(O)C(CNC23CC4CC(CC(C4)C2)C3)C1 (centres undefined) | 97.7 µM | 178 µM | 
49 | O=S1(=O)c2ccccc2N=C(c2ccccc2Cl)CC1c1ccc(F)cc1 (centres undefined) | > 14.8 µM | 10.5 µM | 
50 | CC1=C(C(=O)Nc2c(C)cccc2C)C(c2ccc3c(c2)OCO3)C(C(=O)Nc2c(C)cccc2C)=C(C)N1 | > 25.7 µM | > 25.7 µM | 
51 | C[N+](C)(C)CCCCCc1c2nc(c(CCCCC[N+](C)(C)C)c3ccc([nH]3)c(CCCCC[N+](C)(C)C)c3ccc([nH]3)c(CCCCC[N+](C)(C)C)c3nc1C=C3)C=C2 | > 100 µM | 57.5 µM | 
52 | O=c1[nH]c2nc3ccccc3c(=O)n2nc1Cc1ccccc1 | > 44.7 µM | > 44.7 µM | 
53 | CN(C)c1ccc(/C=C(\C#N)c2cccc(I)c2)cc1 | > 2 µM | 0.129 µM | 
54 | CC(=O)OC[C@@H](OC(C)=O)[C@H](OC(C)=O)[C@@H]1OC(C)(C)O[C@@H]1C1SCCCS1 | > 200 µM | > 200 µM | 
55 | CCOC(=O)C(NCc1cccc(C(F)(F)F)c1)(NC(=O)c1ccccc1)C(F)(F)F (centres undefined) | > 200 µM | 18.6 µM | 
56 | COC(=O)c1ccc(/C=C2\Cc3ccccc3C2=O)cc1 | > 200 µM | > 200 µM | 
57 | CN1CNC2C(=O)CCC2c2ccccc21 (centres undefined) | > 1150 µM | 676 µM | 
58 | BrC(Br)=C1C(=C(Br)Br)C(Br)C1Br (centres undefined) |  |  | inactive
59 | CCN(CC)c1c(C)nnc2c(C)c(-c3ccccc3)nn12 | > 3.55 µM | > 3.55 µM | 
60 | O=[N+]([O-])C(=C(Nc1ccccc1)Nc1ccccc1)/C(Cl)=C(\Cl)Br | > 200 µM | 7.41 µM | 
61 | Cc1sc(Nc2ccccc2[N+](=O)[O-])c(C#N)c1C | 15.5 µM | > 200 µM | 
62 | CC(=O)NC1(C)C(C)C2CC1C(C)C2(C)C (centres undefined) | > 85.1 µM | > 85.1 µM | 
63 | COc1c2c(nc3ccccc13)-c1cc3c(c(=O)n1C2)COC(=O)C3(O)CC(=O)N1CCOCC1 (centres undefined) | > 10 µM | 0.741 µM | 
64 | O=C(NCCCCNCCCNC(=O)c1ccc([N+](=O)[O-])cc1)c1ccc([N+](=O)[O-])cc1 | > 200 µM | 112 µM | 
65 | O=C(c1ccccc1)c1cc(Cl)ccc1NCn1nnc2ccccc21 | > 200 µM | 35.5 µM | 
66 | CON[C@@H]1C[C@H](n2cc(C)c(=O)[nH]c2=O)O[C@@H]1CO[Si](C)(C)C(C)(C)C | > 200 µM | 107 µM | 
67 | Cc1sc2c(c1C)C(=O)c1cccn1-2 | > 200 µM | 170 µM | 
68 | Oc1ccc(-c2nc3ccccc3s2)c(O)c1 | > 148 µM | 27.5 µM | 
69 | NC(=O)c1cc(-c2ccc(-n3ccnc3)cc2)n[nH]c1=O | > 200 µM | 155 µM | 

Row | SMILES | EC50 | IC50 | outcome
70 | C[C@H]1CC[C@H]([C@@H](C)[C@H]2[C@@H](O)C[C@H]3[C@@H]4CC[C@H]5C[C@@H](O)CC[C@]5(C)[C@H]4CC[C@]23C)NC1 | > 200 µM | 12.6 µM | 
71 | O=C(O)c1ccccc1N=NNc1ccc(/C=C/c2ccc(N=NNc3ccccc3C(=O)O)cc2S(=O)(=O)O)c(S(=O)(=O)O)c1 | 6.31 µM | 389 µM | 
72 | CCC(=O)[O][Bi]([c]1ccccc1)[c]1ccccc1 | > 30.9 µM | 5.89 µM | 
73 | CC1C2Cc3ccc(O)cc3C1(C)CCN2CC1CC1 (centres undefined) | > 200 µM | > 200 µM | 
74 | CCOC(=O)c1sc(SC)nc1NC(=O)c1ccc([N+](=O)[O-])cc1 | > 200 µM | > 200 µM | 
75 | CCOC(=O)[C@H]1Nc2ccc(Cl)cc2[C@H]2OCC[C@@H]12 | > 178 µM | > 178 µM | 
76 | O=S(CC1(O)CCCCC1)c1ccccc1 (centres undefined) |  |  | inactive
77 | [O-][n+]1c(CCl)nc2ccccc2c1-c1ccccc1F | > 34.7 µM | > 34.7 µM | 
78 | Clc1ccc(SCCCCCCCCCCSc2ccc(Cl)cc2)cc1 | > 23.4 µM | > 23.4 µM | 
79 | COC(=O)/C(=N/NC(N)=O)C(C(=O)OC)C(=O)C(=O)Nc1ccc(Cl)cc1 (centres undefined) |  |  | inactive
80 | CCCC(=O)Oc1ccc2c(C)cc(=O)oc2c1OC(=O)CCC | > 200 µM | 77.6 µM | 
81 | COc1ccc(/C=C2\C(=O)N(C(=O)c3ccc(NC(C)=O)cc3)N=C2C)cc1OC | > 9.33 µM | > 9.33 µM | 
82 | COc1c2c(cc3ccc(=O)oc13)C(Cl)C(Cl)O2 (centres undefined) | > 77.6 µM | 21.9 µM | 
83 | CC(=O)Nc1nnc2c3ccccc3n(C(C)=O)c2n1 | > 200 µM | 3.55 µM | 
84 | C=C(Br)CN(C(C)=O)C1CCCCC1 | > 200 µM | > 200 µM | 
85 | CCOC(=O)N/N=C/C1=NN(C(=O)OCC)S(=O)C1C (centres undefined) | > 200 µM | > 200 µM | 
86 | C(/C=N/NC1=NCCCCN1)=N\NC1=NCCCCN1 | > 200 µM | > 200 µM | 
87 | CCOC(=O)C(=C=Cc1cccs1)C(=O)c1ccccc1 | > 120 µM | 53.7 µM | 
88 | O=C1CC(c2c(-c3ccccc3)[nH]c3ccccc23)C(=O)N1c1ccccc1 (centres undefined) |  |  | inactive
89 | Nc1nc2c(nc(N)n2Cc2ccccc2)c(=O)[nH]1 | > 74.1 µM | > 74.1 µM | 
90 | O=C(NO)C12C3C4C1C1C2C3C41C(=O)NO (centres undefined) | > 1120 µM | 631 µM | 
